Molecular target: T1, C202S (C218S) mutant MKK7 kinase domain (Homo sapiens, UniProt O14733, C202S)
T1 sequence (O14733 1-419 C202S): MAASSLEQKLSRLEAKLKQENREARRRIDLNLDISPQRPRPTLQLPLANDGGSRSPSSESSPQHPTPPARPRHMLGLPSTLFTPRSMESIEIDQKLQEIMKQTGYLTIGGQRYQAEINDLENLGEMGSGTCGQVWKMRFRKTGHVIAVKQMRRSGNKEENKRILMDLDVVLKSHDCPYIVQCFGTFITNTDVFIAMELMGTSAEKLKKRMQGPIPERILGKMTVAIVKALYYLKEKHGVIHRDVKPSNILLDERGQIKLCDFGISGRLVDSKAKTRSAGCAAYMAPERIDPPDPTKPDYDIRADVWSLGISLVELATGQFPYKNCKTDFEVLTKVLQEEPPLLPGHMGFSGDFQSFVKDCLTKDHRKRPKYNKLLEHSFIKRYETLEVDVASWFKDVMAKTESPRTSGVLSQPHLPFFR
Details: binder

SMILES: CCN1CCN(Cc2ccc(NC(=O)c3ccc(C)c(C=Cc4cnc5[nH]ccc5c4OC)c3)cc2C(F)(F)F)CC1 [K03427, HG-6-64-01]
- ΔTm C202S: 3.5 °C

SMILES: Brc1c(Br)c(Br)c2[nH]nnc2c1Br [K00040, TBB (218697)]
- ΔTm C202S: 3.3 °C

SMILES: O=C1Nc2ccccc2/C1=C/c1c[nH]cn1 [K00007]
- ΔTm C202S: 2.3 °C

SMILES: O=C1NC(=O)C(=Cc2ccc3c(c2)OC(F)(F)O3)S1 [K00828, PI3Kg inhib II (528108)]
- ΔTm C202S: 0.6 °C

SMILES: Cc1cc(Nc2cc(C3CC3)[nH]n2)nc(Nc2ccc(CC#N)cc2)n1 [ASC69]
- ΔTm C202S: 4.9 °C
